Several values for one entry are separate records, joined by “and”; a condition that tells them apart may be missing. Identical values can stand only once.
Tests used:
[1] = test system: B16-F1 melanocytes; test: B16 pigmentation assay (melanin production, absorbance at 405 nm); assay type: cell-based, mouse; settings: for OD 405 (single readings of triplicate): active ingredients diluted to 1% in DMEM, whole plate reading; for OD 405 (single readings of triplicate) / OD 405 AVG: kojic acid 1 mM, 5-6 days; for OD 405 AVG: average absorbance at 405 nm of triplicate, actives diluted to 1%; for % INHIBITION: vs untreated cells; for % INHIBITION / % Inhibition (change in pigmentation): negative value = less pigmentation; for Melanogenesis (OD 405, single readings of triplicate): alone and combined, kojic acid positive control; for Melanogenesis AVG (OD 405): average of triplicate; for % Inhibition (change in pigmentation): viability-corrected, vs untreated
Procedure: Melanogenesis is the process by which melanocytes produce melanin, a naturally produced pigment that imparts color to skin, hair, and eyes. Inhibiting melanogenesis is beneficial to prevent skin darkening and lighten dark spots associated with aging. […] The endpoint of these assays are a spectrophotometric measurement of melanin production and cellular viability. B16-F1 melanocytes were cultivated to subconfluence at 37° C. in 10% CO2 in T150 tissue culture flasks in standard DMEM growth medium supplemented with 10% fetal bovine serum (Mediatech) and 1% penicillin/streptomycin. Cells in one confluent T150 tissue culture flask were trypsinized and resuspended in DMEM, and 1% of the resuspended cells were seeded in 200 μl total volume DMEM in each well of a 96-well tissue culture plate. For phenol red-free media, 200 mM L-glutamine (20 ml/L) (Mediatech) was also added to the DMEM growth medium. […] Once cells reached about 20% confluence, cells were treated with any one of the active ingredients, combination of ingredients, or compositions having said combinations disclosed in the specification by replacing the DMEM growth media with 200 μl DMEM growth media containing diluted active ingredients. Cells were also treated with 1 mM kojic acid as a positive control. Cells were then incubated for 5-6 days at 37° C. in 10% CO2. Following incubation, melanin secretion was measured by absorbance of the whole plate at 405 nm (OD 405) (whole plate reading). […] Percent viability of the cell samples was calculated using the following formula: % Viability=(Mean OD 490 of Sample/Mean OD 490 of Control). […] Percent change in pigmentation of the cell samples was calculated using the following formula: % Change=% pigmentation of Sample−% pigmentation of Control.

[2] = test system: B16-F1 melanocytes; assay type: cell-based; settings: mouse
Procedure: The endpoint of these assays are a spectrophotometric measurement of melanin production and cellular viability. B16-F1 melanocytes were cultivated to subconfluence at 37° C. in 10% CO2 in T150 tissue culture flasks in standard DMEM growth medium supplemented with 10% fetal bovine serum (Mediatech) and 1% penicillin/streptomycin. Cells in one confluent T150 tissue culture flask were trypsinized and resuspended in DMEM, and 1% of the resuspended cells were seeded in 200 μl total volume DMEM in each well of a 96-well tissue culture plate. For phenol red-free media, 200 mM L-glutamine (20 ml/L) (Mediatech) was also added to the DMEM growth medium. Active ingredients were diluted to 1% in DMEM growth medium. Once cells reached about 20% confluence, cells were treated with any one of the active ingredients, combination of ingredients, or compositions having said combinations disclosed in the specification by replacing the DMEM growth media with 200 μl DMEM growth media containing diluted active ingredients. Cells were also treated with 1 mM kojic acid as a positive control. Cells were then incubated for 5-6 days at 37° C. in 10% CO2. Following incubation, melanin secretion was measured by absorbance of the whole plate at 405 nm (OD 405) (whole plate reading). […] Percent viability of the cell samples was calculated using the following formula: % Viability=(Mean OD 490 of Sample/Mean OD 490 of Control). […] Percent change in pigmentation of the cell samples was calculated using the following formula: % Change=% pigmentation of Sample−% pigmentation of Control.

[3] = second experiment, 2% niacinamide, 2% navy bean, 0.2% ferulic acid

Structure (SMILES) | effect on pigmentation / melanin secretion (in words) ([1]; first experiment) | OD 405 (single readings of triplicate) ([1]; first experiment) | OD 405 AVG ([1]; first experiment) | % INHIBITION ([1]; first experiment) | inhibited pigmentation / melanin secretion ([1]; second experiment, 2% navy bean, 0.2% ferulic acid, 2% niacinamide) | Melanogenesis (OD 405, single readings of triplicate) [1, 3] | Melanogenesis AVG (OD 405) [1, 3] | % Inhibition (change in pigmentation) ([1]; second experiment) | % Viability [2] | Viability AVG (OD 490) [2] | OD 405 (single readings of triplicate) ([1]; first experiment, listed as CONTROL)
COc1cc(/C=C/C(=O)O)ccc1O [Ferulic Acid (FA), Ferulic acid] | inhibited pigmentation to some degree | 0.367 and 0.384 and 0.391 | 0.381 | −48.858% | 48.03% | 0.367 and 0.384 and 0.391 | 0.381 | −48.03% | 98.4% | 1.692 | –
NC(=O)c1cccnc1 [Niacinamide (B3), Niacinamide] | – | 0.775 and 0.766 and 0.78 | 0.774 | 3.941% | – | 0.775 and 0.766 and 0.78 | 0.774 | 3.58% | 100% | 1.725 | –
O=c1cc(CO)occ1O [Kojic Acid, kojic acid] | – | – | 0.328 | −55.979% | – | 0.31 and 0.333 and 0.34 | 0.328 | −55.14% | 98.1% | 1.687 | 0.31 and 0.333 and 0.34

Reference: patent US12186423B2, “Brightening booster technology and brightening ampule” (MARY KAY INC., priority 2020, dated 2025)
